Calls of active or inactive are those of the source.
Target: Serine/threonine-protein kinase/endoribonuclease IRE2 (Homo sapiens, UniProt Q76MJ5)
Note: in the data inactive means no Kd found up to 30 µM.

Chain of Serine/threonine-protein kinase/endoribonuclease IRE2 (Q76MJ5 whole entry): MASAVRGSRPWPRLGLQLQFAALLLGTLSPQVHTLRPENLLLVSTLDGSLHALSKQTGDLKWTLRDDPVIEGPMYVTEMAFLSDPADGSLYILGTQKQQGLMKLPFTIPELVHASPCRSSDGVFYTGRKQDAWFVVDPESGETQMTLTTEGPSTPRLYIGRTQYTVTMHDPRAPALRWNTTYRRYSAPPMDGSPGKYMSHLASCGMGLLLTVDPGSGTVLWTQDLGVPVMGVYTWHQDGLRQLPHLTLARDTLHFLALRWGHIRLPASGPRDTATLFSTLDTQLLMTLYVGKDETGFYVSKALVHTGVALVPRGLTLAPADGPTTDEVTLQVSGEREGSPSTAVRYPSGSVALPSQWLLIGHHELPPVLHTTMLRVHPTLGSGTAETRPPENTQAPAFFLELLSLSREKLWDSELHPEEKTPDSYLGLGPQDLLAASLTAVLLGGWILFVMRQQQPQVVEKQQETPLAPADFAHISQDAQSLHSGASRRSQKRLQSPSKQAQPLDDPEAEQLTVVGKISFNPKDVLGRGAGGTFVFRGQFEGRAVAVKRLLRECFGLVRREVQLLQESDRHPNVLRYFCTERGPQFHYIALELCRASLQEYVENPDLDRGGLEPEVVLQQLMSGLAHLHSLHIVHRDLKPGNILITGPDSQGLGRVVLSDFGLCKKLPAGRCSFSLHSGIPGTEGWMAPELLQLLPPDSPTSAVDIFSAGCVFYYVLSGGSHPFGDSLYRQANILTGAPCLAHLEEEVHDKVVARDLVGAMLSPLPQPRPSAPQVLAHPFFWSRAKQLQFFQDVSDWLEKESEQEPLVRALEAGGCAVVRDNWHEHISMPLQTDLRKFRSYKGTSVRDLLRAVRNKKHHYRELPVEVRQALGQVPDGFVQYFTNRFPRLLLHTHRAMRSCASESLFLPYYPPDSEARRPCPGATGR

SMILES | Kd
CNC(=O)CN1CCC(Oc2cc3c(Nc4cccc(Cl)c4F)ncnc3cc2OC)CC1 [SAPITINIB] | > 30 µM (inactive)
CN1CCC(CNc2ccc3ncc(-c4cccc(OC(F)(F)F)c4)n3n2)CC1 [SGI-1776] | > 30 µM (inactive)
C[C@@H]1CN(Cc2ccc(F)cc2)[C@@H](C)CN1C(=O)c1cc2c(C(=O)C(=O)N(C)C)cn(C)c2cc1Cl [TALMAPIMOD] | > 30 µM (inactive)
O=c1sn(-c2cccc3ccccc23)c(=O)n1Cc1ccccc1 [TIDEGLUSIB] | > 30 µM (inactive)
COc1cc2nccc(Oc3ccc(NC(=O)Nc4cc(C)on4)c(Cl)c3)c2cc1OC [TIVOZANIB] | > 30 µM (inactive)

Target: RAC-alpha serine/threonine-protein kinase (Homo sapiens, UniProt P31749)
Sequence (P31749 whole entry): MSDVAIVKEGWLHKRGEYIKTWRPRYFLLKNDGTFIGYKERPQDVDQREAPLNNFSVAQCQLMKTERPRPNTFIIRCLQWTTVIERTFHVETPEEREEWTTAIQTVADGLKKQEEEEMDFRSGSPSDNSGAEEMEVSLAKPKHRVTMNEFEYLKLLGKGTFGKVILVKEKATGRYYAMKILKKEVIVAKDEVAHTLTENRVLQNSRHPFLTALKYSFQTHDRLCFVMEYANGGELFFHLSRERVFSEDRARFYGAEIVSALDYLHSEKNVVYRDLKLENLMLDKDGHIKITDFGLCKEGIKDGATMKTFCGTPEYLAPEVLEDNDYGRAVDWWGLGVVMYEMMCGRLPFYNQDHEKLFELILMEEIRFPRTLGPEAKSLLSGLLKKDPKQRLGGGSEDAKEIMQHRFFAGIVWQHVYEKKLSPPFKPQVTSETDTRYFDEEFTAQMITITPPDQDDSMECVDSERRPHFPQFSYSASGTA

SMILES | Kd
CNC(=O)CN1CCC(Oc2cc3c(Nc4cccc(Cl)c4F)ncnc3cc2OC)CC1 [SAPITINIB] | > 30 µM (inactive)
CN1CCC(CNc2ccc3ncc(-c4cccc(OC(F)(F)F)c4)n3n2)CC1 [SGI-1776] | > 30 µM (inactive)
C[C@@H]1CN(Cc2ccc(F)cc2)[C@@H](C)CN1C(=O)c1cc2c(C(=O)C(=O)N(C)C)cn(C)c2cc1Cl [TALMAPIMOD] | > 30 µM (inactive)
O=c1sn(-c2cccc3ccccc23)c(=O)n1Cc1ccccc1 [TIDEGLUSIB] | > 30 µM (inactive)
COc1cc2nccc(Oc3ccc(NC(=O)Nc4cc(C)on4)c(Cl)c3)c2cc1OC [TIVOZANIB] | > 30 µM (inactive)

Target: T1, Non-receptor tyrosine-protein kinase TNK1 (Homo sapiens, UniProt Q13470)
T1 sequence (Q13470 whole entry): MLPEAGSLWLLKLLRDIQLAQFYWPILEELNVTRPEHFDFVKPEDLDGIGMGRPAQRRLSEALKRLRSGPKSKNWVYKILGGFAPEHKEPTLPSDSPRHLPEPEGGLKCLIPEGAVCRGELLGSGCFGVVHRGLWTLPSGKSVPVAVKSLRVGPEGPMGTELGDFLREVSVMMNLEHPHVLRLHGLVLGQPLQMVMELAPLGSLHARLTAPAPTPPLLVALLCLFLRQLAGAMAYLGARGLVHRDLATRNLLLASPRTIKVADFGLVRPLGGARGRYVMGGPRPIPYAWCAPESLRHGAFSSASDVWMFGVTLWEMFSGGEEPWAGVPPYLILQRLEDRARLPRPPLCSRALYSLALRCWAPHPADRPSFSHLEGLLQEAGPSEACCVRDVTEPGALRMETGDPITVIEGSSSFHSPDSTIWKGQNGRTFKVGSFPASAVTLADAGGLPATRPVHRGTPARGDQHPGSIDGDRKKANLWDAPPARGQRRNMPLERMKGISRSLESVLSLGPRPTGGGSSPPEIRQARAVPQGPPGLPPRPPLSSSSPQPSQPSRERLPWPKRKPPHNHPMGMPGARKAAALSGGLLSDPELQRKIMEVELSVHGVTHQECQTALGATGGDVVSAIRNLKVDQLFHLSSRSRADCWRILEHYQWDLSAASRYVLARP

SMILES | Kd
CNC(=O)CN1CCC(Oc2cc3c(Nc4cccc(Cl)c4F)ncnc3cc2OC)CC1 [SAPITINIB] | > 30 µM (inactive)
CN1CCC(CNc2ccc3ncc(-c4cccc(OC(F)(F)F)c4)n3n2)CC1 [SGI-1776] | > 30 µM (inactive)
C[C@@H]1CN(Cc2ccc(F)cc2)[C@@H](C)CN1C(=O)c1cc2c(C(=O)C(=O)N(C)C)cn(C)c2cc1Cl [TALMAPIMOD] | > 30 µM (inactive)
O=c1sn(-c2cccc3ccccc23)c(=O)n1Cc1ccccc1 [TIDEGLUSIB] | > 30 µM (inactive)
COc1cc2nccc(Oc3ccc(NC(=O)Nc4cc(C)on4)c(Cl)c3)c2cc1OC [TIVOZANIB] | > 30 µM (inactive)

Target: S-adenosylmethionine synthase isoform type-2 (Homo sapiens, UniProt P31153)
Sequence (P31153 whole entry, canonical isoform): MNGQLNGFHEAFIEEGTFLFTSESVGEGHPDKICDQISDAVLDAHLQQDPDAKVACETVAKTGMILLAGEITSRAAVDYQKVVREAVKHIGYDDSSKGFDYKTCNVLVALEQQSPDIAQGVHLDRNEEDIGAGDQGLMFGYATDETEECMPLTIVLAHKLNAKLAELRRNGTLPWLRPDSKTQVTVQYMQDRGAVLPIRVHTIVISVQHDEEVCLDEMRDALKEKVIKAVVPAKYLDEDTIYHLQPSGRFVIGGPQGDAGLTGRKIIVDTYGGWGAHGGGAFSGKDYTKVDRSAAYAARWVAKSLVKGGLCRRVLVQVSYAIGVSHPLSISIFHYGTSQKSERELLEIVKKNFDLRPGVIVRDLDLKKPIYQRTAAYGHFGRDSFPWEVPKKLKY

SMILES | Kd
CNC(=O)CN1CCC(Oc2cc3c(Nc4cccc(Cl)c4F)ncnc3cc2OC)CC1 [SAPITINIB] | > 30 µM (inactive)
CN1CCC(CNc2ccc3ncc(-c4cccc(OC(F)(F)F)c4)n3n2)CC1 [SGI-1776] | > 30 µM (inactive)
C[C@@H]1CN(Cc2ccc(F)cc2)[C@@H](C)CN1C(=O)c1cc2c(C(=O)C(=O)N(C)C)cn(C)c2cc1Cl [TALMAPIMOD] | > 30 µM (inactive)
O=c1sn(-c2cccc3ccccc23)c(=O)n1Cc1ccccc1 [TIDEGLUSIB] | > 30 µM (inactive)
COc1cc2nccc(Oc3ccc(NC(=O)Nc4cc(C)on4)c(Cl)c3)c2cc1OC [TIVOZANIB] | > 30 µM (inactive)

Target: T2, Bone morphogenetic protein receptor type-2 (Homo sapiens, UniProt Q13873)
T2 sequence (Q13873 whole entry): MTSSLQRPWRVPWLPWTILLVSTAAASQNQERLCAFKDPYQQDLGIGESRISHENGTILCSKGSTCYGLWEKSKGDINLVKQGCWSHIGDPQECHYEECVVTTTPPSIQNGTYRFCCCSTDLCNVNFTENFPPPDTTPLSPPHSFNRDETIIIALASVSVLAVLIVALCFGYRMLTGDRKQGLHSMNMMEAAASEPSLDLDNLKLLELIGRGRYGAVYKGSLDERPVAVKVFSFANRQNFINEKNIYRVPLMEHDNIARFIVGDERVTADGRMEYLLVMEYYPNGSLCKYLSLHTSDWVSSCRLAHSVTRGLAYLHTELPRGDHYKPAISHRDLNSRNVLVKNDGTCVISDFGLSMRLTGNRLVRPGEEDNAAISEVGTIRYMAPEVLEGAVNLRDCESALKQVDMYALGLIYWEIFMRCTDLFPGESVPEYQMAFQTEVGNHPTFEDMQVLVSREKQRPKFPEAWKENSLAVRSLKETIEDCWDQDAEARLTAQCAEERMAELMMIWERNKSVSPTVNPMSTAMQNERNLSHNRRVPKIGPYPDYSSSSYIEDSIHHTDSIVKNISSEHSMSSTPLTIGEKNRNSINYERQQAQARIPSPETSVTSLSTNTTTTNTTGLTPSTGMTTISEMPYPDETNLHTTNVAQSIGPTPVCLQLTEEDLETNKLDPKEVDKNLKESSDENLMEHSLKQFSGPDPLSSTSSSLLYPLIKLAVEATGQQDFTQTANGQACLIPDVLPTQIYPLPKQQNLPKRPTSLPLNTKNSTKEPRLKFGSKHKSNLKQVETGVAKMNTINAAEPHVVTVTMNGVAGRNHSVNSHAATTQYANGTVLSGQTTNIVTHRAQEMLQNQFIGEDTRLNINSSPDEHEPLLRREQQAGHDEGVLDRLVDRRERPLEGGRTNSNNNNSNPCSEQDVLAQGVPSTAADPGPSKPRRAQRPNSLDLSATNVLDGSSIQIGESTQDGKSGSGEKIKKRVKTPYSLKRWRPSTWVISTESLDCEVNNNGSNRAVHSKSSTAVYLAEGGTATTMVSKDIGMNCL

SMILES | Kd
CNC(=O)CN1CCC(Oc2cc3c(Nc4cccc(Cl)c4F)ncnc3cc2OC)CC1 [SAPITINIB] | > 30 µM (inactive)
CN1CCC(CNc2ccc3ncc(-c4cccc(OC(F)(F)F)c4)n3n2)CC1 [SGI-1776] | > 30 µM (inactive)
C[C@@H]1CN(Cc2ccc(F)cc2)[C@@H](C)CN1C(=O)c1cc2c(C(=O)C(=O)N(C)C)cn(C)c2cc1Cl [TALMAPIMOD] | > 30 µM (inactive)
O=c1sn(-c2cccc3ccccc23)c(=O)n1Cc1ccccc1 [TIDEGLUSIB] | > 30 µM (inactive)
COc1cc2nccc(Oc3ccc(NC(=O)Nc4cc(C)on4)c(Cl)c3)c2cc1OC [TIVOZANIB] | > 30 µM (inactive)

Target: Tyrosine-protein kinase JAK1 (Homo sapiens, UniProt P23458)
Sequence (P23458 whole entry): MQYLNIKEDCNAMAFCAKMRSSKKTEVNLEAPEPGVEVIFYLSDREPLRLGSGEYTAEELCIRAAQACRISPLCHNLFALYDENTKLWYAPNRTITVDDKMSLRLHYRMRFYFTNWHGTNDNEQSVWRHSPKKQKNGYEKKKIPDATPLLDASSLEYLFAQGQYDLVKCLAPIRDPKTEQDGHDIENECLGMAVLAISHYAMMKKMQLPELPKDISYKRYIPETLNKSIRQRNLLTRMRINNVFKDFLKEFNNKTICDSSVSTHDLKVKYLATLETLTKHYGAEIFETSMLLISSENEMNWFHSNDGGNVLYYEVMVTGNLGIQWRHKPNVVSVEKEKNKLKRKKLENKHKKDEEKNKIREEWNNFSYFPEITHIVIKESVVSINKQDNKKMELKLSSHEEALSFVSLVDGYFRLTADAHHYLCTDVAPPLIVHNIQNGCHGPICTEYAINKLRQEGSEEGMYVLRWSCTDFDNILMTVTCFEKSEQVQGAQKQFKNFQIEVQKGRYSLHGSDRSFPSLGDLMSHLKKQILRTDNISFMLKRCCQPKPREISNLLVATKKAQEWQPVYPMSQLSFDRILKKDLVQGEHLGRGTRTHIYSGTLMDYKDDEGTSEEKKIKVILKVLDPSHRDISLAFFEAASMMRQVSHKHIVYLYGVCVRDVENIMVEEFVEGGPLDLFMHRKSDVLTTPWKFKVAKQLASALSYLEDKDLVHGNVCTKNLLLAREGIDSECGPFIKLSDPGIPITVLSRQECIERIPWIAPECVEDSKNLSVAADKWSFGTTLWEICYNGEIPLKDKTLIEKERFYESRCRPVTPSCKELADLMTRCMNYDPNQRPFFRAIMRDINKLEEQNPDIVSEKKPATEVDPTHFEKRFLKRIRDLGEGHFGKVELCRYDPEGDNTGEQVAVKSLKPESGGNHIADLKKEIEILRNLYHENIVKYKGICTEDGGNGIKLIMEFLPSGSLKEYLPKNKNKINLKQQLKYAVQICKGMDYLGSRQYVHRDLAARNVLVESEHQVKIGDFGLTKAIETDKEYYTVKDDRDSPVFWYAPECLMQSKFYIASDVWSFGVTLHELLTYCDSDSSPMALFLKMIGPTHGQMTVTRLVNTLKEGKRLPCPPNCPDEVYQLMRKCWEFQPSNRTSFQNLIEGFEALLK

SMILES | Kd
CNC(=O)CN1CCC(Oc2cc3c(Nc4cccc(Cl)c4F)ncnc3cc2OC)CC1 [SAPITINIB] | > 30 µM (inactive)
CN1CCC(CNc2ccc3ncc(-c4cccc(OC(F)(F)F)c4)n3n2)CC1 [SGI-1776] | > 30 µM (inactive)
C[C@@H]1CN(Cc2ccc(F)cc2)[C@@H](C)CN1C(=O)c1cc2c(C(=O)C(=O)N(C)C)cn(C)c2cc1Cl [TALMAPIMOD] | > 30 µM (inactive)
O=c1sn(-c2cccc3ccccc23)c(=O)n1Cc1ccccc1 [TIDEGLUSIB] | > 30 µM (inactive)
COc1cc2nccc(Oc3ccc(NC(=O)Nc4cc(C)on4)c(Cl)c3)c2cc1OC [TIVOZANIB] | > 30 µM (inactive)

Target: T3, Phosphatidylinositol 5-phosphate 4-kinase type-2 gamma (Homo sapiens, UniProt Q8TBX8)
T3 sequence (Q8TBX8 whole entry): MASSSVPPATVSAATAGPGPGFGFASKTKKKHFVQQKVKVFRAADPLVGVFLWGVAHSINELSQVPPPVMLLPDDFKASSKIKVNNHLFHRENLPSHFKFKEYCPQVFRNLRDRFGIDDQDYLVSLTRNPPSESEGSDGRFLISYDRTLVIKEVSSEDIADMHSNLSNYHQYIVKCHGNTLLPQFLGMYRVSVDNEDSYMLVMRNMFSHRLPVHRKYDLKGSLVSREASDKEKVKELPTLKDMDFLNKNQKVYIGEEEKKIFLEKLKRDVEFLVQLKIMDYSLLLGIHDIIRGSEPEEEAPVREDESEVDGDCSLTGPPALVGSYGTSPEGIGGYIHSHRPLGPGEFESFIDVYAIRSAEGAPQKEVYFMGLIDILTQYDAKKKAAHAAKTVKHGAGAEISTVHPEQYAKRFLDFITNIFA

SMILES | Kd
CNC(=O)CN1CCC(Oc2cc3c(Nc4cccc(Cl)c4F)ncnc3cc2OC)CC1 [SAPITINIB] | > 30 µM (inactive)
CN1CCC(CNc2ccc3ncc(-c4cccc(OC(F)(F)F)c4)n3n2)CC1 [SGI-1776] | > 30 µM (inactive)
C[C@@H]1CN(Cc2ccc(F)cc2)[C@@H](C)CN1C(=O)c1cc2c(C(=O)C(=O)N(C)C)cn(C)c2cc1Cl [TALMAPIMOD] | > 30 µM (inactive)
O=c1sn(-c2cccc3ccccc23)c(=O)n1Cc1ccccc1 [TIDEGLUSIB] | > 30 µM (inactive)
COc1cc2nccc(Oc3ccc(NC(=O)Nc4cc(C)on4)c(Cl)c3)c2cc1OC [TIVOZANIB] | > 30 µM (inactive)

Target: T4, STE20-related kinase adapter protein alpha (Homo sapiens, UniProt Q7RTN6)
T4 sequence (Q7RTN6 whole entry): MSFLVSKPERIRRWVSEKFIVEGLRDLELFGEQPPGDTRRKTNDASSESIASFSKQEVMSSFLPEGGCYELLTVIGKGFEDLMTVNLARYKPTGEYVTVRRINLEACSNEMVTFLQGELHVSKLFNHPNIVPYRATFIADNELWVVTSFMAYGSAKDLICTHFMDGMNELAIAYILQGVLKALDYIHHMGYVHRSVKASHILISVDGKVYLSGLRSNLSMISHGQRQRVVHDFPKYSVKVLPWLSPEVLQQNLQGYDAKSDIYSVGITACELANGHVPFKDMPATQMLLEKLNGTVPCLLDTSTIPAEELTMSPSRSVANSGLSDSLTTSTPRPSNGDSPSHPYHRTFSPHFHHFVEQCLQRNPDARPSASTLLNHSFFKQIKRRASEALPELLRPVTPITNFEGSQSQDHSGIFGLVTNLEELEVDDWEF

SMILES | Kd
CNC(=O)CN1CCC(Oc2cc3c(Nc4cccc(Cl)c4F)ncnc3cc2OC)CC1 [SAPITINIB] | > 30 µM (inactive)
CN1CCC(CNc2ccc3ncc(-c4cccc(OC(F)(F)F)c4)n3n2)CC1 [SGI-1776] | > 30 µM (inactive)
C[C@@H]1CN(Cc2ccc(F)cc2)[C@@H](C)CN1C(=O)c1cc2c(C(=O)C(=O)N(C)C)cn(C)c2cc1Cl [TALMAPIMOD] | > 30 µM (inactive)
O=c1sn(-c2cccc3ccccc23)c(=O)n1Cc1ccccc1 [TIDEGLUSIB] | > 30 µM (inactive)
COc1cc2nccc(Oc3ccc(NC(=O)Nc4cc(C)on4)c(Cl)c3)c2cc1OC [TIVOZANIB] | > 30 µM (inactive)

— ChEMBL document CHEMBL3991601, “The target landscape of clinical kinase drugs” (Science, 2017)
